Experimental data taken from patent US20260124311A1, “POLYMER-DRUG CONJUGATES FOR STING PATHWAY ACTIVATION” (Vanderbilt University, priority 2022, published 2026).

What was measured:
[1] = system: IRF and NF-kb pathway; assay: THP-1 Dual reporter assay of IRF and NF-kb pathway activation; format: cell-based, human; conditions: FIG. 19A-B
Experimental: Activation of STING. THP1-Dual cells (InvivoGen) were cultured in Roswell Park Memorial Institute (RPMI) 1640 Medium (Gibco) supplemented with 2 mM L-glutamine, 25 mM HEPES, 10% heat-inactivated fetal bovine serum (HI-FBS; Gibco), 100 U mL^−1, penicillin/100 μg mL^−1, streptomycin (Gibco), and 100 μg/mL Normocin. Cells were subjected to 10 μg/mL Blasticidin and 100 μg/mL Zeocin for continual selection after every cell passage. 96-well plates (REF 655180; Greiner Bio-One) were used for screening agonist activity. Reporter cells were seeded at 25,000 cells/well in 100 μL media and treatments were administered in 100 μL of medium. Results were collected 24 hours after treatment using a Quanti-Luc™ (InvivoGen) assay on cell supernatants following manufacturer's instructions. Luminescence was quantified using a plate reader (Synergy H1 Multi-Mode Microplate Reader; Biotek) after supernatants were transferred to opaque-bottom 96-well plates (REF 655073; Greiner Bio-One).

[2] = system: Interferon-β, CXCL10, TNF, IL-6; assay: PCR analysis of kinetics of STING-mediated gene expression; format: cell-based
[3] = system: STING knockout THP1 Dual cell line; assay: STING knockout THP1 Dual cell line reporter assay; format: cell-based, human; conditions: FIG. 19C-D
[4] = system: GFP-STING expressing murine embryonic fibroblasts; conditions: FIG. 21

## diABZI(CTA)-DMA-50k [50 kDa diABZI-DMA (33)]
[1]
  IRF and NF-kb pathway activation: both signaling pathways are engaged
[2]
  time to activation of STING signaling after endocytosis: ≤ 2 h
[3]
  IRF and NF-κβ responses in STING knockout cells: lack of activity
[4]
  STING activation dynamics (STING-puncta, confocal): delayed STING activation
